Measured values from ChEMBL document CHEMBL5385886, “Design, synthesis and evaluation of nitric oxide releasing derivatives of 2,4-diaminopyrimidine as novel FAK inhibitors for intervention of metastatic triple-negative breast cancer” (Eur J Med Chem, 2023).
pIC50: −log10 of the molar value. The source made the active and inactive calls. The rule behind the calls is not given here.

Columns and labels:
[1] = system: MDA-MB-231; assay: Antiproliferative activity against human MDA-MB-231 cells assessed as inhibition of cell proliferation at 5 to 20 uM incubated for 72 hrs by MTT assay; format: functional, cell-based; conditions: dose 5-20 µM
[2] = biological target: T1, Focal adhesion kinase 1 (Homo sapiens, UniProt Q05397); assay: Inhibition of FAK autophosphorylation at Y397 residue in human MDA-MB-231 cells at 4 uM pretreated with carboxy-PTIO followed by compound addition and further incubated for 72 hrs by Western blot analysis; format: cell-based
Target sequence in this assay (Q05397 2-1052 limits assumed): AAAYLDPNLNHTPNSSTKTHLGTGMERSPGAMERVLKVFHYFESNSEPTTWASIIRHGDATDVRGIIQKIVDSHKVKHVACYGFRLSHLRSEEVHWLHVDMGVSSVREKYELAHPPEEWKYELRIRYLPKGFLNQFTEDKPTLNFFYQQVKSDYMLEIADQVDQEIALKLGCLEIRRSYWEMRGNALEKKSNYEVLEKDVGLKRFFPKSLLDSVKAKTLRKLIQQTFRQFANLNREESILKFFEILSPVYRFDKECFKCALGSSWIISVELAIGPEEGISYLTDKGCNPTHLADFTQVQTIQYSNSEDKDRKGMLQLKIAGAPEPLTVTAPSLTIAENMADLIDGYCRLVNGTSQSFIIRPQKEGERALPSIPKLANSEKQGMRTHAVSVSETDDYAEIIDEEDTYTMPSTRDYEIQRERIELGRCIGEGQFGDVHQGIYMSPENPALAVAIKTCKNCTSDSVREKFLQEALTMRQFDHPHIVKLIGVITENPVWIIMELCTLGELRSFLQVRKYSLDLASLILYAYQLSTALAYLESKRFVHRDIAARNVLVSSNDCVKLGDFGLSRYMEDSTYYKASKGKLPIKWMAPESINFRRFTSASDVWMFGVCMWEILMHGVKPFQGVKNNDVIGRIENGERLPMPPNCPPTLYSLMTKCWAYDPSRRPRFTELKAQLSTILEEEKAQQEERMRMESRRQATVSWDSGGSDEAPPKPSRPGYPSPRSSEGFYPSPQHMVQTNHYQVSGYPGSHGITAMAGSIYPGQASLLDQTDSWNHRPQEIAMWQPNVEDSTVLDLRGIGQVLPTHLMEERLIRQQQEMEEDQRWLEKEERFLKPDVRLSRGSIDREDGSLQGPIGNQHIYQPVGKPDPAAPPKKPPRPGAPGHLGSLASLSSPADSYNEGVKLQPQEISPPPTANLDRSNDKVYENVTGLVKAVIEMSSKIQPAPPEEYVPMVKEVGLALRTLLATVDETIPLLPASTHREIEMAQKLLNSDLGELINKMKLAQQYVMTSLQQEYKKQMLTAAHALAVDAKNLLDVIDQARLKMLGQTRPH

[3] = system: MDA-MB-231; assay: Inhibition of stress fibers formation in human MDA-MB-231 cells assessed as reduction in FITC-conjugated phalloidin fluorescence signal at 4 uM incubated for 72 hrs by confocal microscopic analysis; format: functional, cell-based
[4] = biological target: T1, Focal adhesion kinase 1; assay: Inhibition of FAK-mediated signaling pathway in human MDA-MB-231 cells assessed as reduction in MMP-2 protein level at 4 uM pretreated with carboxy-PTIO followed by compound addition and further incubated for 72 hrs by Western blot analysis; format: cell-based
Target sequence in this assay (Q05397 2-1052 limits assumed): as above

[5] = system: MDA-MB-231; assay: Effect on FAK protein expression in human MDA-MB-231 cells at 1 to 4 uM incubated for 72 hrs by Western blot analysis; format: functional, cell-based; conditions: dose 1-4 µM
[6] = system: MDA-MB-231; assay: Inhibition of focal adhesion formation in human MDA-MB-231 cells assessed as reduction in anti-vinculin antibodies fluorescence signal at 4 uM incubated for 72 hrs by confocal microscopic analysis; format: functional, cell-based
[7] = system: MDA-MB-231; assay: Induction of apoptosis in human MDA-MB-231 cells assessed as dead cells at 4 uM incubated for 72 hrs by Annexin V-FITC/PI staining based flow cytometry analysis (reference value: 0.23%); format: functional
[8] = system: MDA-MB-231; assay: Inhibition of focal adhesion formation in human MDA-MB-231 cells assessed as reduction in total area at 4 uM incubated for 72 hrs; format: functional, cell-based
[9] = system: MDA-MB-231; assay: Antitumor activity against human MDA-MB-231 cells xenografted in po dosed BALB/c nude mouse assessed as reduction in number of lung tumor nodules administered once daily for 30 days; format: functional, organism-based; conditions: dose 15-30 mg/kg, time 30.0 day
[10] = system: MDA-MB-231; assay: Antiproliferative activity against human MDA-MB-231 cells assessed as inhibition of cell proliferation at 5 uM incubated for 72 hrs by MTT assay relative to control; format: functional
[11] = system: MDA-MB-231; assay: Inhibition of focal adhesion formation in human MDA-MB-231 cells assessed as reduction in number of focal adhesions at 4 uM incubated for 72 hrs by quantitative analysis; format: functional, cell-based
[12] = system: MDA-MB-231; assay: Antiproliferative activity against human MDA-MB-231 cells assessed as inhibition of cell proliferation incubated for 72 hrs by MTT assay; format: functional, cell-based; conditions: MDA-MB-231, 72 h
[13] = system: MDA-MB-231; assay: Inhibition of cell invasion in human MDA-MB-231 cells assessed as reduction in number of invasive cells incubated for 48 hrs by crystal violet staining based inverted microscopic analysis; format: functional; conditions: dose 1-4 µM
[14] = system: MDA-MB-231; assay: Induction of apoptosis in human MDA-MB-231 cells assessed as late apoptotic cells at 2 uM incubated for 72 hrs by Annexin V-FITC/PI staining based flow cytometry analysis (reference value: 0.11%); format: functional
[15] = Toxicity in BALB/c nude mouse xenografted with human MDA-MB-231 cells assessed as reduction in body weight at 50 to 30 mg/kg, po administered once daily for 30 days and measured every 3 days; format: organism-based; conditions: in vivo, 720 h, dose 50-30 mg/kg, time 30 day
[16] = biological target: T1, Focal adhesion kinase 1; assay: Inhibition of FAK-mediated signaling pathway in human MDA-MB-231 cells assessed as reduction in phosphorylated AKT protein level at 4 uM pretreated with carboxy-PTIO followed by compound addition and further incubated for 72 hrs by Western blot analysis; format: cell-based
Target sequence in this assay (Q05397 2-1052 limits assumed): as above

[17] = system: MDA-MB-231; assay: Induction of apoptosis in human MDA-MB-231 cells assessed as live cells at 4 uM incubated for 72 hrs by Annexin V-FITC/PI staining based flow cytometry analysis (reference value: 97.51%); format: functional
[18] = system: MDA-MB-231; assay: Antiproliferative activity against human MDA-MB-231 cells assessed as inhibition of cell proliferation at 1 uM incubated for 72 hrs by MTT assay; format: functional, cell-based
[19] = system: MDA-MB-231; assay: Induction of apoptosis in human MDA-MB-231 cells assessed as live cells at 2 uM incubated for 72 hrs by Annexin V-FITC/PI staining based flow cytometry analysis (reference value: 97.51%); format: functional
[20] = system: MDA-MB-157; assay: Antiproliferative activity against human MDA-MB-157 cells assessed as inhibition of cell proliferation incubated for 72 hrs by MTT assay; format: functional, cell-based; conditions: MDA-MB-157, 72 h
[21] = Toxicity in BALB/c nude mouse xenografted with human MDA-MB-231 cells assessed as animal death at 50 to 30 mg/kg, po administered once daily for 30 days; format: organism-based; conditions: in vivo, 720 h, dose 50-30 mg/kg, time 30 day
[22] = biological target: T1, Focal adhesion kinase 1; assay: Inhibition of FAK-mediated signaling pathway in human MDA-MB-231 cells assessed as reduction in phosphorylated AKT protein level incubated for 72 hrs by Western blot analysis; format: cell-based; conditions: dose 1-4 µM
Target sequence in this assay (Q05397 2-1052 limits assumed): as above

[23] = system: MDA-MB-231; assay: Inhibition of stress fibers formation in human MDA-MB-231 cells assessed as reduction in FITC-conjugated phalloidin fluorescence signal at 4 uM pretreated with carboxy-PTIO for 1 hr followed by compound addition and further incubated for 72 hrs by confocal microscopic analysis; format: functional, cell-based
[24] = system: MDA-MB-231; assay: Inhibition of stress fibers formation in human MDA-MB-231 cells assessed as reduction in total area at 4 uM incubated for 72 hrs; format: functional, cell-based
[25] = system: MDA-MB-231; assay: Inhibition of focal adhesion formation in human MDA-MB-231 cells assessed as reduction in anti-vinculin antibodies fluorescence signal at 4 uM pretreated with carboxy-PTIO for 1 hr followed by compound addition and further incubated for 72 hrs by confocal microscopic analysis; format: functional, cell-based
[26] = Cytotoxicity against human MCF-10A cells assessed as inhibition of cell proliferation incubated for 72 hrs by MTT assay; format: toxicity, cell-based
[27] = system: MDA-MB-231; assay: Induction of apoptosis in human MDA-MB-231 cells assessed as live cells at 1 uM incubated for 72 hrs by Annexin V-FITC/PI staining based flow cytometry analysis (reference value: 97.51%); format: functional
[28] = biological target: T1, Focal adhesion kinase 1; assay: Inhibition of FAK (unknown origin)
Target sequence in this assay (Q05397 whole entry): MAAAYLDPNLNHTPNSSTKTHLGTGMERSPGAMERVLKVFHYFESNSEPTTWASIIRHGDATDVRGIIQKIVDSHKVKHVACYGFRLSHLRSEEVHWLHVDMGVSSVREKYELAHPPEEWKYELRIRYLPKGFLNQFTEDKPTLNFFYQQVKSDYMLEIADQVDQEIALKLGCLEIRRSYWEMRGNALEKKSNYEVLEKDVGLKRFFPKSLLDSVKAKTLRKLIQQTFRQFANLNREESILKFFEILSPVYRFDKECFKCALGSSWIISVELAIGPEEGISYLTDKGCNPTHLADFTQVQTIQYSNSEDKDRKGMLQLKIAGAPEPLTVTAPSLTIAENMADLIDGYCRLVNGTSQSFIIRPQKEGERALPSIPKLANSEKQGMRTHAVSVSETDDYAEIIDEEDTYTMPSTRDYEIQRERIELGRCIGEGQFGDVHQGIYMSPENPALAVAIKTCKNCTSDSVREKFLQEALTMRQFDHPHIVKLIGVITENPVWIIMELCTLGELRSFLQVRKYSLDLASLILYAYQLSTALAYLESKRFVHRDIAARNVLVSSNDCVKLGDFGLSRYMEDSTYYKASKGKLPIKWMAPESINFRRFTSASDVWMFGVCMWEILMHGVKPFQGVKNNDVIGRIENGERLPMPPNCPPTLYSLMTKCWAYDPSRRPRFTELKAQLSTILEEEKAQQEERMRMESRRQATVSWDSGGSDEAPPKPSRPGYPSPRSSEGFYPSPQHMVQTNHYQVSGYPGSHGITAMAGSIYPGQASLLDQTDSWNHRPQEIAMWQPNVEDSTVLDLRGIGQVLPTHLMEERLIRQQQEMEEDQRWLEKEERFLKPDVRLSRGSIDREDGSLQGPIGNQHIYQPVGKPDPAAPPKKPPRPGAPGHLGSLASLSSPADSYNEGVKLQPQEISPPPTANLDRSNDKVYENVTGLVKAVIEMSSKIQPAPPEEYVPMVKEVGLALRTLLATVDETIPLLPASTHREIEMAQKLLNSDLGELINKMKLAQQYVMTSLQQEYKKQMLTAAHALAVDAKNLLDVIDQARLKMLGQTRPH

[29] = system: MDA-MB-231; assay: Induction of apoptosis in human MDA-MB-231 cells assessed as early apoptotic cells at 2 uM incubated for 72 hrs by Annexin V-FITC/PI staining based flow cytometry analysis (reference value: 2.16%); format: functional
[30] = system: MDA-MB-231; assay: Induction of NO production in human MDA-MB-231 cells incubated for 72 hrs by DAF-FM-DA dye based flow cytometry analysis; format: functional, cell-based; conditions: dose 1-4 µM
[31] = biological target: T1, Focal adhesion kinase 1; assay: Inhibition of FAK-mediated signaling pathway in human MDA-MB-231 cells assessed as reduction in MMP-9 protein level at 4 uM pretreated with carboxy-PTIO followed by compound addition and further incubated for 72 hrs by Western blot analysis; format: cell-based
Target sequence in this assay (Q05397 2-1052 limits assumed): as the sequence (Q05397 2-1052 limits assumed) above

[32] = system: MDA-MB-231; assay: Inhibition of stress fibers formation in human MDA-MB-231 cells assessed as reduction in number of stress fibers at 4 uM incubated for 72 hrs by quantitative analysis; format: functional, cell-based
[33] = system: MDA-MB-231; assay: Induction of apoptosis in human MDA-MB-231 cells assessed as late apoptotic cells at 4 uM incubated for 72 hrs by Annexin V-FITC/PI staining based flow cytometry analysis (reference value: 0.11%); format: functional
[34] = system: MDA-MB-231; assay: Potency index, ratio of TAE226 IC50 to test compound IC50 for antiproliferative activity against human MDA-MB-231 cells assessed as inhibition of cell proliferation incubated for 72 hrs by MTT assay; format: functional
[35] = Selectivity index, ratio of IC50 for human MCF-10A cells to IC50 for human MDA-MB-231 cells; format: toxicity; conditions: MCF-10A cells versus MDA-MB-231 cells, read-out: Ratio IC50
[36] = system: MDA-MB-231; assay: Antimigratory activity in human MDA-MB-231 cells incubated for 48 hrs by scratch wound healing assay; format: functional, cell-based; conditions: dose 1-4 µM
[37] = system: MDA-MB-231; assay: Induction of apoptosis in human MDA-MB-231 cells assessed as early apoptotic cells at 4 uM incubated for 72 hrs by Annexin V-FITC/PI staining based flow cytometry analysis (reference value: 2.16%); format: functional
[38] = biological target: T1, Focal adhesion kinase 1; assay: Inhibition of FAK-mediated signaling pathway in human MDA-MB-231 cells assessed as reduction in MMP-9 protein level incubated for 72 hrs by Western blot analysis; format: cell-based; conditions: dose 1-4 µM
Target sequence in this assay (Q05397 2-1052 limits assumed): as above

[39] = biological target: T1, Focal adhesion kinase 1; assay: Inhibition of FAK-mediated signaling pathway in human MDA-MB-231 cells assessed as reduction in MMP-2 protein level incubated for 72 hrs by Western blot analysis; format: cell-based; conditions: dose 1-4 µM
[40] = system: MDA-MB-231; assay: Induction of apoptosis in human MDA-MB-231 cells assessed as early apoptotic cells at 1 uM incubated for 72 hrs by Annexin V-FITC/PI staining based flow cytometry analysis (reference value: 2.16%); format: functional
[41] = system: MDA-MB-231; assay: Induction of apoptosis in human MDA-MB-231 cells assessed as late apoptotic cells at 1 uM incubated for 72 hrs by Annexin V-FITC/PI staining based flow cytometry analysis (reference value: 0.11%); format: functional
[42] = biological target: T1, Focal adhesion kinase 1; assay: Inhibition of FAK autophosphorylation at Y397 residue in human MDA-MB-231 cells incubated for 72 hrs by Western blot analysis; format: cell-based; conditions: dose 1-4 µM
[43] = system: MDA-MB-231; assay: Induction of apoptosis in human MDA-MB-231 cells assessed as dead cells at 1 uM incubated for 72 hrs by Annexin V-FITC/PI staining based flow cytometry analysis (reference value: 0.23%); format: functional
[44] = system: MDA-MB-231; assay: Antiproliferative activity against human MDA-MB-231 cells assessed as inhibition of cell proliferation at 1 uM pretreated with carboxy-PTIO at 5 to 20 uM for 1 hr followed by compound addition and further incubated for 72 hrs by MTT assay; format: functional, cell-based
[45] = system: MDA-MB-231; assay: Induction of apoptosis in human MDA-MB-231 cells assessed as dead cells at 2 uM incubated for 72 hrs by Annexin V-FITC/PI staining based flow cytometry analysis (reference value: 0.23%); format: functional
[46] = system: MDA-MB-453; assay: Antiproliferative activity against human MDA-MB-453 cells assessed as inhibition of cell proliferation incubated for 72 hrs by MTT assay; format: functional, cell-based; conditions: MDA-MB-453, 72 h

## CC1(C)N(O)C(c2ccc(C(=O)O)cc2)=[N+]([O-])C1(C)C
[1]
  Activity: inactive

## CNC(=O)c1ccccc1Nc1nc(Nc2ccc(CC(=O)OCCCCCCCCOc3no[n+]([O-])c3S(=O)(=O)c3ccccc3)cc2)ncc1Cl
[2]
  inhibition: inactive
[3]
  inhibition: Active
[4]
  inhibition: inactive
[5]
  Activity: inactive
[6]
  inhibition: Active
[7]
  Activity: 3.34%
[8]
  inhibition: Active
[9]
  Activity: Dose-Dependent Effect
[10]
  inhibition at 5 µM: > 92%
[11]
  inhibition: Active
[12]
  pIC50: 6.90
[13]
  inhibition: Dose-Dependent Effect
[14]
  Activity: 13.83%
[15]
  Activity: Non-Toxic
[16]
  inhibition: inactive
[17]
  Activity: 26%
[18]
  Activity: Active
[19]
  Activity: 74.91%
[20]
  pIC50: 6.78
[21]
  Activity: Non-Toxic
[22]
  inhibition: Dose-Dependent Effect
[23]
  inhibition: inactive
[24]
  inhibition: Active
[25]
  inhibition: inactive
[26]
  IC50 at 72 h: 2400 nM
[27]
  Activity: 77.01%
[28]
  pIC50: 7.56
[29]
  Activity: 9.88%
[30]
  Activity: Dose-Dependent Effect
[31]
  inhibition: inactive
[32]
  inhibition: Active
[33]
  Activity: 13.94%
[34]
  Ratio IC50: ~10
[35]
  selectivity ratio: 19.1
[36]
  Activity: Dose-Dependent Effect
[37]
  Activity: 56.72%
[38]
  inhibition: Dose-Dependent Effect
[39]
  inhibition: Dose-Dependent Effect
[40]
  Activity: 12.6%
[41]
  Activity: 6.46%
[42]
  inhibition: Dose-Dependent Effect
[43]
  Activity: 3.94%
[44]
  Activity: inactive
[45]
  Activity: 1.38%
[46]
  pIC50: 6.80
